The source of these data is ChEMBL document CHEMBL1127196, “The use of synthetic peptide combinatorial libraries for the determination of peptide ligands in radio-receptor assays: Opioid peptides” (Bioorg Med Chem Lett, 1993).

Sequence of Mu-type opioid receptor (P33535 whole entry): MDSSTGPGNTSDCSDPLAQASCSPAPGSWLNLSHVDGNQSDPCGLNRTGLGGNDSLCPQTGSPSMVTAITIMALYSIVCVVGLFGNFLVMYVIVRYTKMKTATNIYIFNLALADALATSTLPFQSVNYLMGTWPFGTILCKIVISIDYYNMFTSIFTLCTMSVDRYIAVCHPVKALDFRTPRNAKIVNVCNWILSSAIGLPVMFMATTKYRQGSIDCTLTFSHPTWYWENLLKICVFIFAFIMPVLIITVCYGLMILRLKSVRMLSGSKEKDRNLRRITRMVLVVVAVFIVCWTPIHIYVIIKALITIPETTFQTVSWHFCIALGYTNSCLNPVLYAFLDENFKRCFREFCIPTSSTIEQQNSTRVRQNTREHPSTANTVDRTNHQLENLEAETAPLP

The assay addresses Mu-type opioid receptor (Rattus norvegicus, UniProt P33535). In words: Concentration required for 50% inhibition of [3H]DAGO binding to mu opioid receptor in crude rat brain homogenates. Type of assay: tissue-based.
Regarding `CSCC[C@H](NC(=O)[C@H](Cc1ccccc1)N(N)C(=O)CNC(=O)CN(N)C(=O)[C@H](Cc1ccc(ON)cc1)NN)C(=O)N[C@H](C(N)=O)C(C)C`, the IC50 (in general, the midpoint of a concentration-inhibition curve) was determined as 107 nM.
In the case of `CSCC[C@H](NC(=O)[C@H](Cc1ccccc1)NC(O)CNC(=O)CNC(=O)[C@@H](N)Cc1ccc(O)cc1)C(N)=O` (some centres not stated) it was 34 nM; in that of H-YGGFLA-NH2, 60 nM.
In the case of H-YGGFLD-NH2 it was 214 nM.
In the case of H-YGGFLE-NH2 it was 315 nM; in that of H-YGGFLF-NH2, 381 nM; in that of H-YGGFLG-NH2, 59 nM.
H-YGGFLH-NH2: the IC50 was 141 nM.
In the case of H-YGGFLI-NH2 it was 168 nM; in that of H-YGGFLK-NH2, 201 nM.
In the case of H-YGGFLL-NH2 it was 98 nM; in that of H-YGGFLM-NH2, 112 nM.
In the case of H-YGGFLN-NH2 it was 78 nM.
On to H-YGGFLP-NH2, for which the IC50 was 108 nM.
Compound H-YGGFLQ-NH2 showed an IC50 of 75 nM.
In the case of H-YGGFLR-NH2 it was 158 nM; in that of H-YGGFLS-NH2, 65 nM.
In the case of H-YGGFLT-NH2, the IC50 turned out to be 65 nM.
Compound H-YGGFLV-NH2 returned an IC50 of 189 nM.
In the case of H-YGGFLY-NH2 it was 77 nM; in that of H-YGGFMA-NH2, 28 nM.
In the case of H-YGGFMD-NH2 it was 167 nM; in that of H-YGGFME-NH2, 204 nM; in that of H-YGGFMF-NH2, 223 nM.
In the case of H-YGGFMG-NH2 it was 35 nM.
Compound H-YGGFMH-NH2 registered an IC50 of 37 nM.
Compound H-YGGFMI-NH2 yielded an IC50 of 80 nM.
For the compound H-YGGFMK-NH2, the IC50 was found to be 41 nM.
The compound H-YGGFML-NH2 had an IC50 of 35 nM.
In the case of H-YGGFMM-NH2 it was 30 nM; in that of H-YGGFMN-NH2, 28 nM; in that of H-YGGFMP-NH2, 57 nM.
In the case of H-YGGFMQ-NH2 it was 40 nM.
In the case of H-YGGFMR-NH2 it was 46 nM; in that of H-YGGFMS-NH2, 34 nM.
With H-YGGFMT-NH2, the IC50 was 41 nM.
As to H-YGGFMY-NH2, the IC50 turned out to be 39 nM.
